We go through one compound from US20180030080A1, “Phosphoramidate nucleoside prodrug for treating viral diseases and cancer, processes for their preparation and their use” (ASAVI, LLC, priority 2016, published 2018).

Usually CC50 stands for the concentration at which the toxic effect on the cells reaches its halfway point. Usually EC50 stands for the concentration that produces a half-maximal response. A lower EC50 goes with an effect from little substance.

Common to all, as to assay type: cell-based
Series [1] is described as follows: Cytotoxicity (viability, CC50) reported with the anti-HBV test. As to conditions: human, HepG2 AD38 cells.
Series [2] has as its system HepG2 AD38 cell line. The series is described as above. As to conditions: concentration not given.
Series [3] deals with HBV. The experiment in a line: Anti-HBV activity in the AD-38 cell line using real-time quantitative PCR. The protocol:
Anti-HBV activity of prodrugs of general formula 1 determination in the AD-38 cell line using a real-time quanitative PCR. a) Cell cultures. HepG2 AD38 cell line, harboring an integrated over-the-length HBV genomic DNA (Lander S, et. al, Antimicrobal Agents and Chemotherapy, 1997, pg. 1715-1720) were provided by Dr. C. Seeger, Fox Chase Cancer Center, Philadelphia, Pa.). Cells were grown in complete media (DMEM/F12 with 2 mM L-Glutamine (Thermo Scientific, Cat #11320033), 10% Fetal Bovine Serum (ThermoFisher Scientific, Cat#), 1% Antibiotic-antimitotic solution (ThermoFisher Scientific, Cat#15240096), and 0.3 μg/ml tetracyclin (Sigma, Cat # T7660-5G). Cells were plated onto Corning Biocoat 96-well plates (Corning, Cat #356407) in 225 ul of complete media (without teracyclin), 20000 cells/well. The prodrugs of general formula 1 were dissolved first in DMSO (Sigma cat. D2650), then in DMEM/F12 and 9 serial 3× dilutions were prepared and added to cells in 22.5 μl. The final prodrugs concentrations ranged from 10 μM to 1 nM. Cells grown in the presence of tetracyclin were used as a positive control, as HBV replication in this cell line is turned off by thetracyclin. Cell plates were incubated for 4 days at 37 C, 5% CO2. b) HBV DNA isolation. After 4 days, viral DNA was isolated from culture supernatants using PureLink® Pro 96 Genomic DNA Purification Kit (ThermoFisher Scientific, Cat # K183104A), according to manufacturer's recommendations. Eluted DNA samples were stored at −20 C. c) Quantitative real-time PCR (qPCR). PCR was performed on the CFX96™ Real-Time System (Bio-Rad, Hercules, Calif.) using AmpliTaq Gold® DNA Polymerase (Applied Biosystems®).
Ct values (cycle threshold) were obtained for each prodrug sample and normalized to untreated cells, according to formula E=(1/(1+100%))̂(Ct[studied prodrug sample]−Ct[K-]), where E is a normalized expression of studied gene, Ct[K-] and Ct[studied prodrug sample] are Ct values of untreated cells and studied prodrug sample. Inhibition curves were obtained and EC50 values were calculated using the Graph Prizm software (Table 3).

`C=CCOC(=O)[C@H](C)N[P@](=O)(OC[C@@H]1O[C@H](n2cc(C)c(=O)[nH]c2=O)[C@H](F)[C@H]1O)Oc1ccccc1` [1.2(67), allyl (S)-2-{(S)-[(2S,3S,4R,5S)-4-fluoro-3-hydroxy-5-(5-methyl-2,4-dioxo-3,4-dihydro-2H-pyrimidin-1-yl)-tetrahydro-furan-2-ylmethoxy]-phenoxy-phosphorylamino}-propanoate] gave a CC50 in series [1] above 30000 nM. Further, the “viability, %” value in series [2] worked out at 95%. Further, it took 760 ± 110 nM to reach a half-maximal effect in series [3] (Hepatitis B virus, 96 h) (EC50). For the same compound, the “inhibition, %” value in series [3] (against HBV, concentration not given) is 88%.
